Test results taken from a compilation of properties of binary mixtures (doi:10.1021/acs.jced.1c00419).

Assay: xn = mol fraction of the nth substance listed
Details: 101.3 kPa

NC1CCCCC1 + CCCCCCCCn1cc[n+](C)c1.F[B-](F)(F)F
x2 = 0
Details	speed of sound [m/s]
293.15 K	1430
303.15 K	1387
323.15 K	1302

NC1CCCCC1 + CCCCCC[n+]1ccn(C)c1.F[B-](F)(F)F
x2 = 0
Details	speed of sound [m/s]
293.15 K	1430
298.15 K	1409
303.15 K	1387
308.15 K	1366
313.15 K	1344
318.15 K	1323
323.15 K	1302

NC1CCCCC1 + CCCC[n+]1ccn(C)c1.F[B-](F)(F)F
speed of sound [m/s]
Details	x2 = 0	x2 = 0.0982	x2 = 0.2032	x2 = 0.301	x2 = 0.4012	x2 = 0.4828	x2 = 0.6016	x2 = 0.7124	x2 = 0.8012	x2 = 0.9024
293.15 K	–	1442	1456	1469	1484	1496	1514	1532	1545	–
298.15 K	1409	1420	1435	1450	–	1479	–	1517	1533	1549
303.15 K	1387	1400	1415	1431	1448	1462	1484	–	1520	1538
308.15 K	–	1380	1395	1412	1430	1445	1467	1488	1506	1525
313.15 K	1344	1360	1376	–	1413	1428	1452	1474	1493	–
318.15 K	1323	1340	1357	–	1396	1412	1436	1460	1479	1501
323.15 K	–	1320	1338	1356	1378	1395	–	1446	1466	1489

CCCCCCCCn1cc[n+](C)c1.F[B-](F)(F)F + NC1CCCCC1
speed of sound [m/s]
Details	x1 = 0.1076	x1 = 0.203	x1 = 0.3072	x1 = 0.4001	x1 = 0.492	x1 = 0.6078	x1 = 0.7023	x1 = 0.7996	x1 = 0.8963
293.15 K	–	1453	–	1470	–	1480	1486	1490	–
298.15 K	1423	–	1445	1452	1459	1465	–	1475	1480
303.15 K	–	–	1427	1435	1443	1450	1455	1460	1466
308.15 K	1382	1396	–	1418	1426	1435	1440	1446	1452
313.15 K	1362	1377	1391	1401	–	1419	1426	1432	1439
318.15 K	1342	1358	–	–	1394	–	–	1418	1426
323.15 K	–	1340	1355	1368	1377	1388	1396	1405	–

CCCCCC[n+]1ccn(C)c1.F[B-](F)(F)F + NC1CCCCC1
speed of sound [m/s]
Details	x1 = 0.097	x1 = 0.1808	x1 = 0.2945	x1 = 0.396	x1 = 0.5009	x1 = 0.6048	x1 = 0.7029	x1 = 0.8008	x1 = 0.8991
293.15 K	1440	1452	1465	–	1486	1496	1505	–	1522
298.15 K	–	–	1446	1458	1469	1480	1490	1499	–
303.15 K	1400	1411	1427	1440	1453	–	1475	1485	1496
308.15 K	1379	1392	1408	1422	1435	1449	1460	–	–
313.15 K	–	1371	1389	1404	1418	–	1445	1457	1470
318.15 K	1337	1351	1370	1385	1402	1417	1430	1444	–
323.15 K	1316	1331	–	–	–	1401	–	1430	1444
